Assay results: US20230256102A1, “COMPOSITES AND USES THEREOF” (YISSUM RESEARCH DEVELOPMENT COMPANY OF THE HEBREW …, priority 2019, published 2023)

How the values were obtained:
A. citrulli M6 [1] = assay: Bactericidal (killing) activity of LAE@Cu composites in vitro; type: cell-based, Acidovorax citrulli; conditions: LAE at 1.25 ppm, 30 min
Procedure: Assessment of bactericidal activity of LAE @Cu composites in vitro: Bactericidal activity of LAE@Cu composites was tested by adding the composites to 50 ml-PBS suspensions containing ˜10^7 colony forming units (CFU)/ml of A. citrulli M6. The suspensions were incubated at 30° C. with shaking for 30 min. Then, the concentrations of viable bacteria were determined following plating of serial dilutions on nutrient agar (NA, Difco) plates.
Bacterial killing assay: The bactericidal (killing) activity of LAE@[Cu] composites at a concentration of 25 ppm (1.25 mg in 50 ml), were tested in PBS containing ˜107 (CFU)/mL. The suspensions were incubated at 30° C. with shaking for 30 min. Then, the viable bacteria were determined following plating of serial dilutions on NA (nutrient agar) plates. Controls included @[Cu], the composite-like compound without LAE, and the commercial bactericide, Kocide®, at the same concentrations.

A. citrulli M6 [2] = assay: In planta assay, A. citrulli-melon pathosystem; type: in vivo, melon (cv. AN-305); conditions: 200 ppm @[Cu], 10 ppm LAE; 5 days after inoculation
From the text: Assessment of the ability of the LAE @Cu composites to reduce disease: To assess the potential of LAE@Cu composites for management of bacterial plant diseases, we carried out experiments using the A. citrulli-melon pathosystem. In these experiments, the foliage of three-week-old plants of melon (cv. AN-305; Origene Seeds) were sprayed with LAE1.0@Cu composites at a concentration of 200 ppm. Additional treatments included spraying with 200 ppm of @Cu, 10 ppm of LAE (corresponding to the concentration of LAE in 200 ppm LAE×1.0@Cu) and the commercial bactericide Kocide, which was applied at the recommended concentration for management of the disease (2 mg/ml). As controls, foliage were sprayed with double distilled water (DDW). […] Disease severity of inoculated leaves was determined 5 days after inoculation, using the following scale: 0, no symptoms; 1, few minor lesions; 2, few small necrotic spots; 3, increased necrotic spots in less than 25% of the leaf area; 4, increased necrotic spots in 25 to 50% of the leaf area; and 5, increased necrotic spots in more than 50% of the leaf area and dead leaf. The data were statistically analyzed by one-way analysis of variance (ANOVA) and Tukey's honest significant difference (HSD) test.
In-planta assay: Melon plants (cv. AN-305; Origene Seeds) were grown in a growth chamber at 28° C. […] Disease severity was determined 5 days after inoculation.

CCCCCCCCCCCC(=O)N[C@@H](CCCN=C(N)N)C(=O)OCC [LAE, Lauroyl arginate ethyl ester]
reduction of the A. citrulli population (A. citrulli M6 [1]): 2 orders of magnitude | reduction of disease severity as compared with non-treated controls (A. citrulli M6 [2]): 29%
